Data set [1] has as its system H3N2 influenza virus A/Hong Kong/68 (HK/68). Briefly: CPE inhibition assay with HK/68 in MDCK cells. In kind it is cell-based. Particulars: for selectivity index IAV HK/68 [CC50/IC50]: CC50 in MDCK cells / IC50 HK/68; for IC50: Influenza A virus; for anti-influenza virus activity (in words): HK/68 and Jena/8178, CPE inhibition in MDCK cells.
The next data set in a line: in vitro. Particulars: dog.
The test system of data set [2] is H1N1 influenza virus A/Jena/8178/09 (Jena/8178). Briefly: CPE inhibition assay with Jena/8178 in MDCK cells. The class given is cell-based. Particulars: for selectivity index IAV Jena/8178 [CC50/IC50]: CC50 in MDCK cells / IC50 Jena/8178; for IC50: Influenza A virus, H1N1, MDCK, 48 h, read-out: IC50 of CPE IAV Jena/8178.
Where [3] appears, read: H3N2, MDCK, 48 h, read-out: IC50 of CPE IAV HK/68.
The mark [4] stands for this setting: H3N2, HK/68 and Jena/8178 together, CPE inhibition in MDCK cells, read-out: IC50 values, anti-influenza virus activity stated for both strains together.
The mark [5] stands for this setting: HK/68 and Jena/8178 together, CPE inhibition in MDCK cells.

Molecules are shown by their SMILES. Where two headings read alike, the source gives them in different places.

For `C=C(C)[C@@H]1CC[C@]2(C(=O)O)CC[C@]3(C)[C@H](CC[C@@H]4[C@@]5(C)C[C@@H](O)[C@H](O[C@@H]6O[C@H](CO)[C@@H](O[C@@H]7O[C@H](C)[C@@H](O)[C@H](O)[C@@H]7O)[C@H](O)[C@H]6O[C@@H]6OC[C@@H](O)[C@H](O)[C@H]6O)C(C)(C)[C@@H]5CC[C@]43C)[C@@H]12` [Compound 2, 3-O-β-D-Xylopyranosyl-(1→2)-[α-L-rhamnopyranosyl-(1→4)]-β-D-glucopyranosylalphitolic acid], the “selectivity index IAV HK/68 [CC50/IC50]” value in data set [1] is on record as 11. For the same molecule, the IC50 in data set [1] (setting [3]) was determined as 1.1 ± 0.44 µM. In the data set “in vitro”, this molecule registered a CC50 at 72 h of 10.4 ± 0.52 µM. In addition, in data set [2], the “selectivity index IAV Jena/8178 [CC50/IC50]” value is 6 and the IC50 came out at 1.9 ± 0.08 µM.
For the molecule `CC1(C)C[C@H]2C3=CC[C@@H]4[C@@]5(C)C[C@@H](O)[C@H](O)C(C)(C)[C@@H]5CC[C@@]4(C)[C@]3(C)CC[C@@]2(C(=O)O)C[C@H]1OC(=O)/C=C/c1ccccc1` [21-cinnamoyloxy-maslinic acid], the “CC50 in MDCK cells” value in the data set on MDCK cells is reported as “lost their cytotoxicity”. For the same molecule, the IC50 in data set [1] (setting [3]) was 11.3 ± 7.35 µM; in data set [1] (setting [4]), 7 to 11 µM; in data set [2] it was 6.9 ± 2.97 µM. The same molecule returned a CC50 at 72 h in the data set “in vitro” of over 100 µM.
The matching figures for `CC1(C)C[C@H]2C3=CC[C@@H]4[C@@]5(C)CC[C@H](O)C(C)(C)[C@@H]5CC[C@@]4(C)[C@]3(C)CC[C@@]2(C(=O)O)C[C@H]1OC(=O)/C=C/c1ccccc1` [21-cinnamoyloxy-oleanolic acid]: “lost their cytotoxicity”, 8.9 ± 3.95 µM, 7 to 11 µM, 6.8 ± 4.12 µM and over 100 µM.
Turning to `C=C(C)[C@@H]1CC[C@]2(C(=O)O)CC[C@]3(CO)[C@H](CC[C@@H]4[C@@]5(C)C[C@@H](O)[C@H](O[C@@H]6O[C@H](CO)[C@@H](O)[C@H](O)[C@H]6O[C@@H]6OC[C@@H](O)[C@H](O)[C@H]6O)C(C)(C)[C@@H]5CC[C@]43C)[C@@H]12` [Compound 3, 3-O-β-D-Xylopyranosyl-(1→2)-β-D-glucopyranosyl-27-hydroxyalphitolic acid], the “anti-influenza virus activity (in words)” value in data set [1] is reported as “only weak or no anti-influenza virus activity”. The same molecule returned a CC50 in “in vitro” of over 100 µM.
On to `C[C@H]1O[C@@H](O[C@H]2[C@H](O)[C@@H](O[C@@H]3OC[C@@H](O)[C@H](O)[C@H]3O)[C@H](O[C@H]3[C@H](O)C[C@]4(C)[C@H]5CC=C6[C@@H]7CC(C)(C)CC[C@]7(C(=O)O)CC[C@@]6(C)[C@]5(C)CC[C@H]4C3(C)C)O[C@@H]2CO)[C@@H](O)[C@@H](O)[C@@H]1O` [Compound 5, 3-O-β-D-Xylopyranosyl-(1→2)-[α-L-rhamnopyranosyl-(1→4)]-β-D-glucopyranosylmaslinic acid], for which the “selectivity index IAV HK/68 [CC50/IC50]” value in data set [1] amounted to 9. In data set [1] (setting [5]), the “IC50 values, anti-influenza virus activity stated for both strains together” value is “low micromolar range”. The IC50 in data set [1] (setting [3]) was 1.7 ± 0.07 µM. In the data set “in vitro”, this molecule gave a CC50 at 72 h of 15.5 ± 1.69 µM.
On to `C=C(C)[C@@H]1CC[C@]2(C(=O)O)CC[C@]3(CO)[C@H](CC[C@@H]4[C@@]5(C)C[C@@H](O)[C@H](O[C@@H]6O[C@H](CO)[C@@H](O)[C@H](O)[C@H]6O[C@@H]6O[C@H](CO)[C@@H](O)[C@H](O)[C@H]6O)C(C)(C)[C@@H]5CC[C@]43C)[C@@H]12` [Compound 4, 3-O-β-D-Glucopyranosyl-(1→2)-β-D-glucopyranosyl-27-hydroxyalphitolic acid], for which, in data set [1], the “anti-influenza virus activity (in words)” value is “only weak or no anti-influenza virus activity”. In “in vitro”, this molecule displayed a CC50 of over 100 µM. Also, in data set [2], the “selectivity index IAV Jena/8178 [CC50/IC50]” value is over 2 and the IC50 worked out at 43 ± 11.8 µM.
In the data set “in vitro”, `C=C(C)[C@@H]1CC[C@]2(C(=O)O)CC[C@]3(C)[C@H](CC[C@@H]4[C@@]5(C)C[C@@H](O)[C@H](O)C(C)(C)[C@@H]5CC[C@]43C)[C@@H]12` [alphitolic acid] showed a CC50 at 72 h of 49.9 ± 6.68 µM.
Take `C[C@H]1O[C@H](O[C@@H]2CO[C@@H](O[C@H]3CC[C@]4(C)[C@H]5CC=C6[C@@H]7CC(C)(C)[C@H](OC(=O)/C=C/c8ccccc8)C[C@]7(C(=O)O)CC[C@@]6(C)[C@]5(C)CC[C@H]4C3(C)C)[C@H](O[C@@H]3OC[C@@H](O)[C@H](O)[C@H]3O[C@H]3O[C@H](C)[C@@H](O)[C@H](O)[C@@H]3O)[C@H]2O)[C@@H](O)[C@@H](O)[C@@H]1O` [Compound 8, 3-O-α-L-Rhamnopyranosyl-(1 →2)-β-D-xylopyranosyl-(1 →2)-[α-L-rhamnopyranosyl-(1 →4)]-β-D-xylopyranosyl-21-cinnamoyloxyoleanolic acid]: in data set [1], the “selectivity index IAV HK/68 [CC50/IC50]” value turned out to be 7. Moreover, the values for the IC50 in data set [1] (setting [3]), in data set [1] (setting [4]) and in data set [2] were 0.17 ± 0.18 µM, 0.05 to 0.27 µM and 0.16 ± 0.07 µM, respectively. Also, the CC50 at 72 h in “in vitro” stood at 1.2 ± 0.1 µM. Moreover, in data set [2], the “selectivity index IAV Jena/8178 [CC50/IC50]” value was 7.
In the case of `C[C@H]1O[C@H](O[C@H]2[C@H](O[C@H]3[C@H](O[C@H]4CC[C@]5(C)[C@H]6CC=C7[C@@H]8CC(C)(C)[C@H](OC(=O)/C=C/c9ccccc9)C[C@]8(C(=O)O)CC[C@@]7(C)[C@]6(C)CC[C@H]5C4(C)C)OC[C@@H](O)[C@@H]3O)OC[C@@H](O)[C@@H]2O)[C@@H](O)[C@@H](O)[C@@H]1O` [Compound 7, 3-O-α-L-Rhamnopyranosyl-(1→2)-β-D-xylopyranosyl-(1→2)-β-D-xylopyranosyl-21-cinnamoyloxyoleanolic acid], in data set [1], the “selectivity index IAV HK/68 [CC50/IC50]” value is 31. Further, the IC50 was 0.05 ± 0.02 µM in data set [1] (setting [3]), 0.05 to 0.27 µM in data set [1] (setting [4]) and 0.27 ± 0.13 µM in data set [2]. The molecule further came in with a CC50 at 72 h in “in vitro” of 1.5 ± 0.8 µM. The “selectivity index IAV Jena/8178 [CC50/IC50]” value in data set [2] was determined as 6.
In turn, `CC1(C)CC[C@]2(C(=O)O)CC[C@]3(C)C(=CC[C@@H]4[C@@]5(C)C[C@@H](O)[C@H](O)C(C)(C)[C@@H]5CC[C@]43C)[C@@H]2C1` [maslinic acid] displayed a CC50 at 72 h in the data set “in vitro” of 23.3 ± 2.93 µM.
Regarding `CCOC(=O)C1=C[C@@H](OC(CC)CC)[C@H](NC(C)=O)[C@@H](N)C1` [oseltamivir, reference compound], the IC50 amounted to 0.003 ± 0.001 µM in data set [1] (setting [3]) and 0.064 ± 0.013 µM in data set [2].
On to `C[C@H]1O[C@@H](O[C@H]2[C@H](O)[C@@H](O[C@@H]3OC[C@@H](O)[C@H](O)[C@H]3O)[C@H](O[C@H]3[C@H](O)C[C@]4(C)[C@H]5CC=C6[C@@H]7CC(C)(C)[C@H](OC(=O)/C=C/c8ccccc8)C[C@]7(C(=O)O)CC[C@@]6(C)[C@]5(C)CC[C@H]4C3(C)C)O[C@@H]2CO)[C@@H](O)[C@@H](O)[C@@H]1O` [Compound 6, 3-O-β-D-Xylopyranosyl-(1→2)-[α-L-rhamnopyranosyl-(1→4)]-β-D-glucopyranosyl-21-cinnamoyloxymaslinic acid], for which, in data set [1], the “selectivity index IAV HK/68 [CC50/IC50]” value is on record as 3. The “IC50 values, anti-influenza virus activity stated for both strains together” value in data set [1] (setting [5]) was “low micromolar range”. Besides, the IC50 in data set [1] (setting [3]) came out at 1.8 ± 0.23 µM. For the same molecule, the CC50 at 72 h in “in vitro” was 5.8 ± 0.69 µM. Besides, in data set [2], the “selectivity index IAV Jena/8178 [CC50/IC50]” value came to 3 and the IC50 is 1.8 ± 0.03 µM.
Molecule `C=C(C)[C@@H]1CC[C@]2(C(=O)O)CC[C@]3(CO)[C@H](CC[C@@H]4[C@@]5(C)C[C@@H](O)[C@H](O)C(C)(C)[C@@H]5CC[C@]43C)[C@@H]12` [27-hydroxyalphitolic acid] displayed a CC50 in the data set “in vitro” of over 100 µM. In addition, in data set [2], the “selectivity index IAV Jena/8178 [CC50/IC50]” value was over 4 and the IC50 turned out to be 26.5 ± 4.71 µM.
On to `C=C(C)[C@@H]1CC[C@]2(C(=O)O)CC[C@]3(C)[C@H](CC[C@@H]4[C@@]5(C)C[C@@H](O)[C@H](O[C@@H]6O[C@H](CO)[C@@H](O)[C@H](O)[C@H]6O[C@@H]6OC[C@@H](O)[C@H](O)[C@H]6O)C(C)(C)[C@@H]5CC[C@]43C)[C@@H]12` [Compound 1, 3-O-β-D-Xylopyranosyl-(1→2)-β-D-glucopyranosylalphitolic acid], for which the “anti-influenza virus activity (in words)” value in data set [1] was “only weak or no anti-influenza virus activity”. This molecule also gave a CC50 in “in vitro” of over 100 µM. For the same molecule, the IC50 in data set [2] amounted to 38.6 ± 15.7 µM.

The values are drawn from paper PMC5869419 (Journal of Natural Products, 2018).
